According to PMC7822874, “Chemoprotective antimalarials identified through quantitative high-throughput screening of Plasmodium blood and liver stage parasites” (Scientific Reports, 2021):
Read-outs that look alike come from different tables or passages of the source.

How the values were obtained:
HepG2 = details: human, hepg2 cells, 48 h
in vitro = details: human, hepg2 cells
[1] = test system: P. falciparum Dd2 Cytb V259L; assay: SYBR Green ABS proliferation assay, NCGC00473217 selected clone F06; assay type: cell-based, Plasmodium falciparum; details: Plasmodium falciparum
Description: (§1) As resistance selection studies implicated the parasite cytochrome bc1 complex in mediating reduced parasite susceptibility to both NCGC00473217 and NCGC00374598, we leveraged these drug-selected parasites to test for altered drug response to a panel of antimalarial compounds.
(§2) The P. falciparum parasite Dd2 line was cultured in vitro using standard conditions. […] Tissue culture flasks and assay plates were incubated at 37 °C under a gas mixture of 5% CO2, 5% O2 and 90% N2. […] Significant differences were assessed using two-sided Student’s t-tests. All HTS assays were stopped and read at 72 h. Percent response values represent relative growth as judged by SYBR Green-I fluorescence intensity values normalized to controls.
(§3) Fresh uninfected RBCs (0.5% hematocrit) were added on day 7 and media was changed every other day. […] Resistant parasites were maintained under drug media at a volume of 50 mL until a high parasitemia (> 5%) was achieved. Aliquots of the bulk resistant cultures were frozen in cryovials before cloning by limiting dilution in 96-well plates (seeded at 0.25 or 0.5 parasites/well)[70]. After 3 weeks of cloning, we screened for positive wells by flow cytometry with SYBR Green-stained cells. […] Parasites were harvested by saponin lysis at the trophozoite stage and genomic DNA was extracted using the QIAamp DNA Blood Midi Kit (Qiagen, Germantown, MD)[71].

[2] = test system: P. falciparum Dd2 Cytb G131S; assay: SYBR Green ABS proliferation assay, NCGC00374598 selected clone C11; assay type: cell-based, Plasmodium falciparum; details: Plasmodium falciparum
Description: as §1, §2, §3

[3] = test system: P. falciparum Dd2 (clone B2) asexual blood stage parasites; assay: P. falciparum Dd2 asexual blood stage SYBR Green-I 72 h proliferation assay (qHTS); assay type: cell-based, Plasmodium falciparum; details: Plasmodium falciparum, DD2, Dd2 parental; Hill fit, averaged from three independent replicates; top concentration 29 µM; read-out: Average AC50 (Log[M]), Dd2 (converted)
[4] = DD2, […], averaged from three independent replicates, top concentration 29 µM, read-out: Average AC50 (Log[M]), NCGC00473217 clone F06 (Cytb V259L) (converted)
[5] = DD2, […], averaged from three independent replicates, top concentration 29 µM, read-out: Average AC50 (Log[M]), NCGC00374598 clone C11 (Cytb G131S) (converted)

Log AC50 (M) (HepG2)	SMILES	CC50 at 48 h (in vitro) [µM]	also measured
-4.4643	N=c1ccn(Cc2cccc(Cl)c2)cc1 [MLS000080111-01]	34.3	–
-4.3643	O=c1c2ccccc2nc2n1CCN2Cc1ccc(Cl)cc1 [MLS000107729-01]	43.2	–
-4.4643	O=C(Nc1ccc(Cl)cc1)N1CCC(c2nc(-c3ccccc3Cl)no2)CC1 [MLS000529331-01]	34.3	–
-4.3643	Brc1ccc2[nH]c3c(N4CCc5ccccc5C4)ncnc3c2c1 [MLS000556376-01]	43.2	–
-4.3643	O=C(N/N=C/c1ccccn1)c1ccccc1 [MLS000562399-01]	43.2	–
-4.3643	Cc1ccc(-c2nn(-c3ccccc3)cc2CSC(=N)N)cc1 [MLS000572993-01]	43.2	–
-4.3643	Cc1cccc(Cn2nnc3c2C(=O)c2ccccc2C3=O)c1 [MLS000594471-01]	43.2	–
-4.9143	Nc1nc(N)c2c(ccc3[nH]ccc32)n1 [MLS000758537-01]	12.2	–
-4.3643	COc1ccc(CNc2ncnc3c2[nH]c2ccccc23)cc1 [MLS000768346-01]	43.2	–
-4.3643	OC(CNCCc1ccccc1)COc1ccc(OCC(O)CNCCc2ccccc2)cc1 (stereo not drawn) [MLS000769724-01]	43.2	–
-4.7643	O=C(Nc1ccc(Oc2cccc(C(F)(F)F)c2)nc1)c1cccs1 [MLS000860613-01]	17.2	–
-4.5143	O=C(Nc1ccc(Oc2cccnc2)cc1)C1CCN(Cc2cc(Cl)ccc2O)CC1 [MLS001072411-01]	30.6	–
-4.4143	COc1cnc(-c2ccccn2)nc1Oc1ccc(C(C)(C)C)cc1 [MLS001165485-01]	38.5	–
-4.3643	CCc1nnc(NC(=O)c2cc(Cl)ccn2)s1 [MLS001175292-01]	43.2	–
-4.9143	Cc1cc(C)n(-c2nc3ccccc3c(=O)n2OCC#N)n1 [MLS001215162-01]	12.2	–
-4.6143	Cc1ccc(NC(=O)CSc2n[nH]c(-c3ccccn3)n2)cc1 [MLS001223214-01]	24.3	–
-4.5643	SC(=Nc1ccncc1)NCc1ccccc1 [MLS001230114-01]	27.3	–
-4.4643	CCCCCCc1cc2cc(-c3nnc(-c4ccc(C)cc4)o3)c(=O)oc2cc1O [NCGC00098410-01]	34.3	–
-4.3643	CCOC(=O)c1ccc(-c2ccc(/C=C(\C#N)c3nc4cc(C)ccc4[nH]3)o2)cc1 [NCGC00098928-01]	43.2	–
-4.3643	O=C(Nc1cccc(C(F)(F)F)c1)C1CCN([S+](=O)([O-])c2cccc3nsnc23)CC1 [NCGC00108239-01]	43.2	–
-4.3643	CCOC(=O)c1ccc(N2C(=O)c3[nH]nc(-c4ccc(OC)cc4)c3C2c2cccc(O)c2)cc1 (stereo not drawn) [NCGC00108527-01]	43.2	–
-4.3643	CCN(CC)CCCNC(=O)c1ccc2c(c1)sc1nc(-c3ccc(C)cc3)cn12 [NCGC00121667-01]	43.2	–
-5.1643	Cc1nc(-c2ccc(Cl)cc2)sc1CCNC(=O)c1ccco1 [NCGC00131874-01]	6.85	–

Log AC50 (M) (HepG2)	SMILES	CC50 at 48 h (in vitro) [µM]	also measured
-4.3643	Cc1ccccc1Cn1c(CN2CCC(C(=O)NCCN(C)C)CC2)cc2ccccc21 [NCGC00137638-01]	43.2	–
–	CN1C(CCl)Nc2cc(Cl)c([S+](N)(=O)[O-])cc2[S+]1(=O)[O-] (stereo not drawn) [NCGC00167446-03]	–	AC50 [1, 4]: 3.17e-08 M; AC50 [2, 5]: 3.17e-08 M; AC50 [3]: 2.82e-08 M
-4.5143	CC(=O)N1CCN(c2cc(-c3noc([C@@H]4CCCN4Cc4ccc(C(F)(F)F)cc4)n3)ccn2)CC1 [NCGC00394931-01]	30.6	–
-4.3028	Fc1ccc(CN2CC[C@H](c3nc4ccc(C(F)(F)F)cc4[nH]3)C2)cc1F [NCGC00396703-01]	49.8	–
-4.3028	O=C(C[C@@H]1CCNC[C@@H]1Cc1cc(CC2CCCCC2)on1)NCc1ccccc1 [NCGC00400728-01]	49.8	–
-4.6143	COc1ccc2cc1Nc1ccc(cc1)C[C@H](NC(=O)CCc1ccccn1)C(=O)N(C)[C@@H](C(=O)NCc1ccccc1)C2 [NCGC00410291-01]	24.3	–
-4.5143	Cc1cc(=O)n(CC(=O)Nc2cccc(C(F)(F)F)c2)c(N2CCC(C)CC2)n1 [NCGC00432189-01]	30.6	–
-4.3643	COc1cc(NC(=O)Cn2c(N(C)Cc3ccccc3)nc(C)cc2=O)cc(OC)c1 [NCGC00432301-01]	43.2	–
-4.5143	COc1cccc(-c2noc(CCCc3nc(-c4cccnn4)no3)n2)c1 [NCGC00435845-01]	30.6	–
-4.4143	CCN1C(=O)C2(CCN([S+](=O)([O-])c3cc(F)ccc3C)CC2)c2ccccc21 [NCGC00435872-01]	38.5	–
-4.3643	CC(C(=O)N1CCCN(c2cc(-c3ccc(Cl)cc3)n[nH]2)CC1)c1ccccc1 (stereo not drawn) [NCGC00436178-01]	43.2	–
-4.3643	O=C(N1CCCN(c2cc(-c3ccc(Cl)cc3)n[nH]2)CC1)C1(c2ccccc2)CC1 [NCGC00436184-01]	43.2	–
-4.3643	O=C(c1ccco1)N1CCCN(c2cc(-c3ccc(Br)cc3)n[nH]2)CC1 [NCGC00436196-01]	43.2	–
-4.3643	CCC(C(=O)N1CCN(c2cc(-c3cccs3)n[nH]2)CC1)c1ccccc1 (stereo not drawn) [NCGC00436744-01]	43.2	–
-4.3643	O=C(NC1CCN(c2cc(-c3cccs3)n[nH]2)CC1)c1cccc(OC(F)(F)F)c1 [NCGC00437198-01]	43.2	–
–	CCCN1C(CC(C)C)=N[S+](=O)([O-])c2cc(NC(=O)C3CCOCC3)ccc21 [NCGC00521138-01]	–	AC50 [1, 4]: 1.22e-05 M; AC50 [2, 5]: 3.99e-06 M
–	CCCN1C(CC(C)C)=N[S+](=O)([O-])c2cc(N[S+](=O)([O-])c3ccccc3C)ccc21 [NCGC00521140-01]	–	AC50 [1, 4]: 1e-05 M
–	CCCN1C(CC(C)C)=N[S+](=O)([O-])c2cc(N[S+](=O)([O-])c3cc4ccccc4s3)ccc21 [NCGC00521156-01]	–	AC50 [2, 5]: 1e-06 M; AC50 [3]: 1.26e-06 M
–	CCCN1C(CC(C)C)=N[S+](=O)([O-])c2cc(N[S+](=O)([O-])c3ccc(Cl)s3)ccc21 [NCGC00521874-01]	–	AC50 [1, 4]: 7.1e-07 M; AC50 [2, 5]: 8.93e-07 M; AC50 [3]: 1.42e-06 M
–	CCCN1C(C)=N[S+](=O)([O-])c2cc(NC(=O)c3cccs3)ccc21 [NCGC00522606-01]	–	AC50 [2, 5]: 2e-06 M; AC50 [3]: 8.93e-06 M
–	CCCN1C(C)=N[S+](=O)([O-])c2cc(NC(=O)c3ccc(F)cc3)ccc21 [NCGC00522607-01]	–	AC50 [2, 5]: 1.26e-06 M; AC50 [3]: 1.12e-06 M
–	CCCN1C(CC(C)C)=N[S+](=O)([O-])c2cc(NC(=O)c3cccc(C#N)c3)ccc21 [NCGC00531772-01]	–	AC50 ([1]; DD2, cytochrome b mutant line, third value triple, c9, […], read-out: log AC50, mean (converted)): 8.93e-07 M; AC50 ([2]; DD2, cytochrome b mutant line, second value triple, c6, […], read-out: log AC50, mean (converted)): 2.67e-07 M

SMILES	Log AC50 (M) (HepG2)	CC50 at 48 h (in vitro) [µM]	also measured
CC(=O)c1cn(CCOc2ccc(F)cc2)c2ccccc12 [MLS001205469-01]	-4.3643	43.2	–
